Data as given in patent US10251395B2, “Substituted furano-/thienocycloalkylamino-2-pyrimidine derivatives and use thereof for controlling undesired plant growth” (Bayer CropScience Aktiengesellschaft, priority 2015, dated 2019).

Experiments:
Alopecurus myosuroides = experiment: Pre-emergence herbicidal effect; format: in vivo; settings: scored visually after 3 weeks
Method in brief: (§1)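 Using soil-surface application before emergence, the compound was delivered in a water volume equating to 600 to 800 L/ha. Plants grew in a greenhouse for 3 weeks; activity was then rated visually in percent against untreated plants, with 100% for plants killed.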

Amaranthus retroflexus [1] = experiment: Pre-emergence herbicidal effect; format: in vivo; settings: scored visually after 3 weeks
Method in brief: as §1

Avena fatua = experiment: Pre-emergence herbicidal effect; format: in vivo; settings: scored visually after 3 weeks
Method in brief: as §1

Echinochloa crus-galli [2] = experiment: Pre-emergence herbicidal effect; format: in vivo; settings: scored visually after 3 weeks
Method in brief: as §1

Lolium multiflorum [3] = experiment: Pre-emergence herbicidal effect; format: in vivo; settings: scored visually after 3 weeks
Method in brief: as §1

Matricaria inodora [4] = experiment: Pre-emergence herbicidal effect; format: in vivo; settings: scored visually after 3 weeks
Method in brief: as §1

Setaria viridis [5] = experiment: Pre-emergence herbicidal effect; format: in vivo; settings: scored visually after 3 weeks
Method in brief: as §1

Stellaria media [6] = experiment: Pre-emergence herbicidal effect; format: in vivo; settings: scored visually after 3 weeks
Method in brief: as §1

Veronica persica [7] = experiment: Pre-emergence herbicidal effect; format: in vivo; settings: scored visually after 3 weeks
Method in brief: as §1

Viola tricolor [8] = experiment: Pre-emergence herbicidal effect; format: in vivo; settings: scored visually after 3 weeks
Method in brief: as §1

Echinochloa crus-galli [9] = experiment: Post-emergence herbicidal effect; format: in vivo; settings: assessed visually after about 3 weeks vs untreated controls
Method in brief: (§2)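 Percent herbicidal action was judged by eye roughly 3 weeks post-application, 0% matching control plants and 100% meaning plant death. Seedlings, greenhouse-grown in sandy loam, received the spray at one leaf.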

Lolium multiflorum [10] = experiment: Post-emergence herbicidal effect; format: in vivo; settings: 320 g/ha, assessed visually after about 3 weeks vs untreated controls
Method in brief: as §2

Polygonum convolvulus [11] = experiment: Post-emergence herbicidal effect; format: in vivo; settings: assessed visually after about 3 weeks vs untreated controls
Method in brief: as §2

Setaria viridis [12] = experiment: Post-emergence herbicidal effect; format: in vivo; settings: assessed visually after about 3 weeks vs untreated controls
Method in brief: as §2

Stellaria media [13] = experiment: Post-emergence herbicidal effect; format: in vivo; settings: assessed visually after about 3 weeks vs untreated controls
Method in brief: as §2

Viola tricolor [14] = experiment: Post-emergence herbicidal effect; format: in vivo; settings: assessed visually after about 3 weeks vs untreated controls
Method in brief: as §2

Polygonum convolvulus [15] = experiment: Pre-emergence herbicidal effect; format: in vivo; settings: scored visually after 3 weeks
Method in brief: as §1

Amaranthus retroflexus [16] = experiment: Post-emergence herbicidal effect; format: in vivo; settings: assessed visually after about 3 weeks vs untreated controls
Method in brief: as §2

Ipomoea purpurea = experiment: Post-emergence herbicidal effect; format: in vivo; settings: 320 g/ha, assessed visually after about 3 weeks vs untreated controls
Method in brief: as §2

Veronica persica [17] = experiment: Post-emergence herbicidal effect; format: in vivo; settings: assessed visually after about 3 weeks vs untreated controls
Method in brief: as §2

logP (HCOOH) = format: physicochemical; settings: HCOOH
From the text: Table 2 (physicochemical characterization of selected synthesis examples)

Abutilon theophrasti [18] = experiment: Pre-emergence herbicidal effect; format: in vivo; settings: Dosage 320 g/ha, scored visually after 3 weeks
Method in brief: as §1

Abutilon theophrasti [19] = experiment: Post-emergence herbicidal effect; format: in vivo; settings: assessed visually after about 3 weeks vs untreated controls
Method in brief: as §2

Matricaria inodora [20] = experiment: Post-emergence herbicidal effect; format: in vivo; settings: assessed visually after about 3 weeks vs untreated controls
Method in brief: as §2

Structure (SMILES)	ALOMY pre-emergence efficacy (herbicidal activity) (Alopecurus myosuroides; Dosage 320 g/ha)	AMARE pre-emergence efficacy (herbicidal activity) (Amaranthus retroflexus [1]; Dosage 80 g/ha)	AMARE pre-emergence efficacy (herbicidal activity) (Amaranthus retroflexus [1]; Dosage 320 g/ha)	AVEFA pre-emergence efficacy (herbicidal activity) (Avena fatua; Dosage 320 g/ha)	ECHCG pre-emergence efficacy (herbicidal activity) (Echinochloa crus-galli [2]; Dosage 320 g/ha)	LOLMU pre-emergence efficacy (herbicidal activity) (Lolium multiflorum [3]; Dosage 320 g/ha)	MATIN pre-emergence efficacy (herbicidal activity) (Matricaria inodora [4]; Dosage 80 g/ha)	MATIN pre-emergence efficacy (herbicidal activity) (Matricaria inodora [4]; Dosage 320 g/ha)	SETVI pre-emergence efficacy (herbicidal activity) (Setaria viridis [5]; Dosage 80 g/ha)	SETVI pre-emergence efficacy (herbicidal activity) (Setaria viridis [5]; Dosage 320 g/ha)	STEME pre-emergence efficacy (herbicidal activity) (Stellaria media [6]; Dosage 80 g/ha)	STEME pre-emergence efficacy (herbicidal activity) (Stellaria media [6]; Dosage 320 g/ha)	VERPE pre-emergence efficacy (herbicidal activity) (Veronica persica [7]; Dosage 320 g/ha)	VIOTR pre-emergence efficacy (herbicidal activity) (Viola tricolor [8]; Dosage 80 g/ha)	VIOTR pre-emergence efficacy (herbicidal activity) (Viola tricolor [8]; Dosage 320 g/ha)	post-emergence efficacy ECHCG (Echinochloa crus-galli [9]; 320 g/ha)	post-emergence efficacy STEME (Stellaria media [13]; 320 g/ha)	post-emergence efficacy VIOTR (Viola tricolor [14]; 320 g/ha)	ECHCG pre-emergence efficacy (herbicidal activity) (Echinochloa crus-galli [2]; Dosage 80 g/ha)	POLCO pre-emergence efficacy (herbicidal activity) (Polygonum convolvulus [15]; Dosage 320 g/ha)	further results
Nc1nc(NC2CCc3ccsc32)ncc1C(F)(F)F (racemic) [compound 29]	100%	60%	100%	100%	100%	100%	100%	100%	90%	100%	100%	100%	90%	100%	100%	100%	100%	90%	–	–	post-emergence efficacy LOLMU (Lolium multiflorum [10]): 80%; post-emergence efficacy POLCO (Polygonum convolvulus [11]; 320 g/ha): 90%; post-emergence efficacy SETVI (Setaria viridis [12]; 80 g/ha): 90%; post-emergence efficacy SETVI (Setaria viridis [12]; 320 g/ha): 100%; post-emergence efficacy STEME (Stellaria media [13]; 80 g/ha): 90%; post-emergence efficacy VIOTR (Viola tricolor [14]; 80 g/ha): 80%
CS(=O)(=O)c1cnc(NC2CCCc3cc(Cl)sc32)nc1N (racemic) [compound 53]	–	100%	100%	–	100%	–	100%	100%	–	100%	80%	100%	100%	100%	100%	90%	100%	100%	100%	90%	VERPE pre-emergence efficacy (herbicidal activity) (Veronica persica [7]; Dosage 80 g/ha): 100%; post-emergence efficacy AMARE (Amaranthus retroflexus [16]; 80 g/ha): 90%; post-emergence efficacy AMARE (Amaranthus retroflexus [16]; 320 g/ha): 100%; post-emergence efficacy ECHCG (Echinochloa crus-galli [9]; 80 g/ha): 80%; post-emergence efficacy PHBPU (Ipomoea purpurea): 90%; post-emergence efficacy POLCO (Polygonum convolvulus [11]; 80 g/ha): 80%; post-emergence efficacy POLCO (Polygonum convolvulus [11]; 320 g/ha): 90%; post-emergence efficacy SETVI (Setaria viridis [12]; 320 g/ha): 100%; post-emergence efficacy STEME (Stellaria media [13]; 80 g/ha): 100%; post-emergence efficacy VERPE (Veronica persica [17]; 80 g/ha): 90%; post-emergence efficacy VERPE (Veronica persica [17]; 320 g/ha): 90%; post-emergence efficacy VIOTR (Viola tricolor [14]; 80 g/ha): 90%; logP (HCOOH) (logP (HCOOH)): solid; logP (HCOOH): 2.41; 1H NMR (CDCl3, 400 MHZ, δ in ppm): 1.75-2.00 (m,
Cc1cc2c(o1)CCCC2Nc1ncc(S(C)(=O)=O)c(N)n1 (racemic) [compound 62]	60%	–	100%	–	80%	50%	80%	100%	–	80%	90%	100%	90%	90%	100%	40%	90%	100%	–	–	ABUTH pre-emergence efficacy (herbicidal activity) (Abutilon theophrasti [18]): 90%; post-emergence efficacy AMARE (Amaranthus retroflexus [16]; 80 g/ha): 80%; post-emergence efficacy AMARE (Amaranthus retroflexus [16]; 320 g/ha): 90%; post-emergence efficacy LOLMU (Lolium multiflorum [10]): 80%; logP (HCOOH) (logP (HCOOH)): oily; logP (HCOOH): 1.78; 1H NMR (CDCl3, 400 MHZ, δ in ppm): 1.70-2.00 (m, 4H,
CC(=O)c1cnc(NC2CCCc3sc(C)cc32)nc1N (racemic) [compound 150]	100%	100%	100%	–	100%	100%	–	–	100%	100%	100%	100%	100%	100%	100%	80%	100%	90%	90%	100%	ABUTH pre-emergence efficacy (herbicidal activity) (Abutilon theophrasti [18]): 70%; ALOMY pre-emergence efficacy (herbicidal activity) (Alopecurus myosuroides; Dosage 80 g/ha): 90%; LOLMU pre-emergence efficacy (herbicidal activity) (Lolium multiflorum [3]; Dosage 80 g/ha): 100%; VERPE pre-emergence efficacy (herbicidal activity) (Veronica persica [7]; Dosage 80 g/ha): 70%; post-emergence efficacy ABUTH (Abutilon theophrasti [19]; 80 g/ha): 80%; post-emergence efficacy ABUTH (Abutilon theophrasti [19]; 320 g/ha): 80%; post-emergence efficacy AMARE (Amaranthus retroflexus [16]; 80 g/ha): 80%; post-emergence efficacy AMARE (Amaranthus retroflexus [16]; 320 g/ha): 90%; post-emergence efficacy PHBPU (Ipomoea purpurea): 90%; post-emergence efficacy LOLMU (Lolium multiflorum [10]): 90%; post-emergence efficacy MATIN (Matricaria inodora [20]; 80 g/ha): 80%; post-emergence efficacy MATIN (Matricaria inodora [20]; 320 g/ha): 90%; post-emergence efficacy SETVI (Setaria viridis [12]; 320 g/ha): 90%; post-emergence efficacy STEME (Stellaria media [13]; 80 g/ha): 80%; post-emergence efficacy VERPE (Veronica persica [17]; 80 g/ha): 100%; post-emergence efficacy VERPE (Veronica persica [17]; 320 g/ha): 100%; post-emergence efficacy VIOTR (Viola tricolor [14]; 80 g/ha): 80%; logP (HCOOH) (logP (HCOOH)): oily; logP (HCOOH): 1.51; 1H NMR (CDCl3, 400 MHZ, δ in ppm): 1.85 (m, 3H, 3H of
Nc1nc(NC2CCc3sccc32)ncc1C(F)(F)F (racemic) [compound 215]	90%	100%	100%	70%	100%	100%	100%	100%	90%	100%	100%	100%	100%	80%	90%	–	–	–	80%	100%	AVEFA pre-emergence efficacy (herbicidal activity) (Avena fatua; Dosage 80 g/ha): 70%; VERPE pre-emergence efficacy (herbicidal activity) (Veronica persica [7]; Dosage 80 g/ha): 100%
Cc1cc2c(s1)CCCC2Nc1nc(N)c([S+](C)[O-])c(C(C)F)n1 (racemic) [compound 309]	90%	90%	100%	90%	90%	–	90%	100%	90%	100%	100%	100%	100%	100%	100%	–	–	–	60%	100%	ABUTH pre-emergence efficacy (herbicidal activity) (Abutilon theophrasti [18]): 80%; POLCO pre-emergence efficacy (herbicidal activity) (Polygonum convolvulus [15]; Dosage 80 g/ha): 100%; VERPE pre-emergence efficacy (herbicidal activity) (Veronica persica [7]; Dosage 80 g/ha): 100%
Cc1cc2c(s1)CCCC2Nc1nc(N)c(Br)c(C(F)F)n1 (racemic) [compound 314]	90%	90%	–	60%	90%	–	90%	–	100%	100%	100%	100%	100%	100%	100%	60%	50%	60%	70%	100%	ABUTH pre-emergence efficacy (herbicidal activity) (Abutilon theophrasti [18]): 60%; ALOMY pre-emergence efficacy (herbicidal activity) (Alopecurus myosuroides; Dosage 80 g/ha): 60%; POLCO pre-emergence efficacy (herbicidal activity) (Polygonum convolvulus [15]; Dosage 80 g/ha): 100%; post-emergence efficacy ABUTH (Abutilon theophrasti [19]; 320 g/ha): 70%; post-emergence efficacy PHBPU (Ipomoea purpurea): 90%; post-emergence efficacy SETVI (Setaria viridis [12]; 320 g/ha): 60%
